Patent US10092500B2, “Oral care compositions” (BASF SE, priority 2014, dated 2018)

Experiments:
[1] = system: S. mutans (ATCC#25175); experiment: Inhibition of bacterial acid production (Bromo Cresol Purple broth, OD 588/427); assay type: cell-based; conditions: for Inhibition of bacterial acid production, in words: change of OD 588 / OD 427 (pH indicator)
Experimental: Method to observe the acid production of S. mutans in a medium containing a pH indicator and glucose. Observe how xylitol and the example polymers affect acid production: A culture of S. mutans (ATCC#25175) is grown statically overnight in 10 mL liquid broth (BHI) at 37° C. […] The no treatment control has 20 μl water added. To each experimental well 180 of the inoculated BCP broth is added. To the no inoculum control 20 μl water and 20 μl filter sterilized overnight culture broth are added. […] Both wavelengths are measured every hour for several hours but before evaporation became an issue. The plates are shaken for 10 seconds before reading.

[2] = system: Multispecies saliva derived Biofilm; experiment: Substantivity: multispecies saliva derived biofilm growth on pre-treated, rinsed hydroxyapatite surfaces; assay type: cell-based, human saliva; conditions: 24 hr on pre-treated hydroxyapatite
Experimental: The peg lids are transferred to a clear 96 well plate containing 200 μl of the designated treatments below in Jordan's with 5% sucrose. This peg/plate assembly is shaken for 5 mins and then incubated for 25 mins aerobically at 37 C. After 30 mins of treatment the two pegs is transferred to a 96 well plate containing 200 μl of water and it is rinsed for 10 min at 500 rpm. […] After incubation the peg lids are transferred to a rinse plate containing 200 μl of water for 5 minutes and then transferred to white 96 well plate containing 200 μl Bac-titer-Glo, this is shaken for 5 minutes and read for luminescence.

[3] = system: Streptococcus mutans Biofilm; experiment: Substantivity: S. mutans biofilm growth on pre-treated, rinsed hydroxyapatite surfaces; assay type: cell-based, S. mutans (ATCC#25175); conditions: 24 hr on pre-treated hydroxyapatite
Experimental: Method to evaluate the substantivity of polymers to hydroxy apatite surfaces and the effects these polymers have on the growth of Streptococcus mutans and Saliva derived biofilms: S. mutans (ATCC#25175) is inoculated into 10 mL BHI and incubated statically at 37° C. overnight. […] Hydroxy apatite coated peg lids are pellicle treated with sterile artificial saliva 200 μl/per well of a 96 well clear plate for 30 minutes at 37° C. aerobically. The peg lids are transferred to a clear 96 well plate containing 200 μl of the designated treatments below in Jordan's with 5% sucrose. […] After 30 mins of treatment the two pegs is transferred to a 96 well plate containing 200 μl of water and it is rinsed for 10 min at 500 rpm. […] After incubation the peg lids are transferred to a rinse plate containing 200 μl of water for 5 minutes and then transferred to white 96 well plate containing 200 μl Bac-titer-Glo, this is shaken for 5 minutes and read for luminescence.

[4] = system: 48 hour saliva biofilms; experiment: Disruption of established 48 hour saliva biofilms; assay type: cell-based, pooled human saliva; conditions: treatment for 5 minutes; Active = 1000 ppm e-polylysine, Chelate = 0.1% Trilon Ca, Polymer = 1%; negative = increase over control
Experimental: Method to screen combinations of actives, example polymers and chelates to identify potential synergies for biofilm disruption: Polystyrene pegs are pellicle treated with fresh pooled human saliva for 30 minutes at 37° C. aerobically. […] The pegs are added to the growth media and incubated anaerobically 37° C. At 24 hr. the pegs are removed and transferred to a fresh plate containing 200 μl of sterile BHI. And incubated anaerobically for another 24 hr at 37° C. […] Following a 5 minute rinse at room temperature, the pegs are transferred to a treatment plate containing combinations of actives, chelate and polymers. This is followed a 5 minute treatment (shaking at 500 rpm). The treated pegs are transferred to a white 96 well plate containing 200 μl Bac-titer-Glo reagent—this is incubated at room temperature for 5 minutes (shaking) and read on a plate reader for luminescence.

[5] = system: Streptococcus mutans biofilm; experiment: Prevention of S. mutans biofilm development on hydroxy apatite pegs (Bac-titer-Glo luminescence); assay type: cell-based; conditions: Controls column; 2% xylitol; 24 hr growth; negative = increase over control
Experimental: To evaluate the multispecies saliva and S. mutans biofilm preventing activity of polymers and control combinations of condensants S. mutans 25175 is inoculated into 10 mL BHI and incubated statically at 37° C. overnight. […] Hydroxy apatite coated peg lids are pellicle treated with sterile artificial saliva 200 μl/per well of a 96 well clear plate for 30 minutes at 37° C. aerobic. […] Test solutions are added to a desired final concentration and water is added to bring the final volume to 200 μl.

[6] = system: multispecies saliva biofilm; experiment: Prevention of multispecies saliva biofilm development on hydroxy apatite pegs (Bac-titer-Glo luminescence); assay type: cell-based, pooled human saliva; conditions: Controls column; 2% xylitol; 24 hr growth
Experimental: To evaluate the multispecies saliva and S. mutans biofilm preventing activity of polymers and control combinations of condensants Hydroxy apatite (HA) coated surfaces of a 96 peg lid (Biosurface Technologies, Bozeman, Mont.) are pellicle treated with pooled human saliva 200 μl/per well of a 96 well clear plate for 30 minutes at 37° C. aerobically. Into each well of the growth plate, clear 96 well plate, 160 μl inoculated Brain Heart Infusion (BHI) broth is added. Test solutions are added to a desired final concentration and water is added to bring the final volume to 200 μl.

N=C(N)NCCC[C@H](N)C(=O)O [Arginine, L-arginine]
Mean Delta OD588 (stdev) ([1]; 1% treatment, pH 6.3): 1.054 (0.13)
Inhibition of bacterial acid production, in words [1]: no acid inhibiting effects
% decrease in biofilm as compared to growth control (negative indicates increased biofilm) ([2]; % treatment 0.070%): −28%
% decrease in biofilm as compared to growth control (negative indicates increased biofilm) ([2]; % treatment 0.140%): −20%
% decrease in biofilm as compared to growth control (negative indicates increased biofilm) ([2]; % treatment 0.280%): −24%
% decrease in biofilm as compared to growth control (negative indicates increased biofilm) ([2]; % treatment 0.560%): −22%
% decrease in biofilm as compared to growth control (negative indicates increased biofilm) ([2]; % treatment 1.120%): 49%
% decrease in biofilm as compared to growth control (negative indicates increased biofilm) ([3]; % treatment 0.070%): −40%
% decrease in biofilm as compared to growth control (negative indicates increased biofilm) ([3]; % treatment 0.140%): −18%
% decrease in biofilm as compared to growth control (negative indicates increased biofilm) ([3]; % treatment 0.280%): −59%
% decrease in biofilm as compared to growth control (negative indicates increased biofilm) ([3]; % treatment 0.560%): −53%
% decrease in biofilm as compared to growth control (negative indicates increased biofilm) ([3]; % treatment 1.120%): −29%

CCCCCCCCCCCCCCCC[n+]1ccccc1 [Cetylpyridinium chloride]
% decrease in biofilm as compared to growth control (negative indicates increased biofilm) ([2]; % treatment 0.070%): 98%
% decrease in biofilm as compared to growth control (negative indicates increased biofilm) ([3]; % treatment 0.070%): 100%

O=C(O)CN(CCN(CC(=O)O)CC(=O)O)CC(=O)O [EDTA, ethylenediaminetetraacetic acid]
Mean Delta OD588 (stdev) ([1]; 1% treatment, pH 7.0): 0.283 (0.086)
Inhibition of bacterial acid production, in words [1]: no or little change demonstrating acid inhibiting effects

O=C([O-])CN(CCN(CC(=O)[O-])CC(=O)[O-])CC(=O)[O-].[Ca+2].[Na+].[Na+] [Trilon Ca, Ca EDTA]
Disruption of 48 hour saliva biofilms, reduction from the No Treatment control [4]: −10%

OC[C@@H](O)[C@H](O)[C@@H](O)CO [Xylitol, xylitol]
Mean Delta OD588 (stdev) ([1]; 0.1% treatment): 0.993 (0.099)
Mean Delta OD588 (stdev) ([1]; 0.5% treatment): 0.841 (0.119)
Mean Delta OD588 (stdev) ([1]; 1% treatment): 0.759 (0.081)
Mean Delta OD588 (stdev) ([1]; 2% treatment): 0.734 (0.131)
Inhibition of bacterial acid production, in words [1]: acid inhibition at all concentrations tested
% decrease in biofilm as compared to growth control (negative indicates increased biofilm) ([2]; % treatment 1.120%): 14%
% decrease in biofilm as compared to growth control (negative indicates increased biofilm) ([2]; % treatment 2.000%): 12%
Prevention of Streptococcus mutans biofilm development, reduction from the untreated control [5]: −1%
% decrease in biofilm as compared to growth control (negative indicates increased biofilm) ([3]; % treatment 1.120%): −11%
% decrease in biofilm as compared to growth control (negative indicates increased biofilm) ([3]; % treatment 2.000%): −15%
Prevention of multispecies saliva biofilm development, reduction from the untreated control [6]: 17%

O=C(O)CC(O)(CC(=O)O)C(=O)O [citric acid]
Mean Delta OD588 (stdev) ([1]; 1% treatment, pH 7.0): 0.196 (0.029)
Inhibition of bacterial acid production, in words [1]: no or little change demonstrating acid inhibiting effects

O=C(O)CCC(=O)O [succinic acid]
Mean Delta OD588 (stdev) ([1]; 1% treatment, pH 7.4): 0.323 (0.107)
Inhibition of bacterial acid production, in words [1]: no or little change demonstrating acid inhibiting effects
